Inconclusive results and toxic doses are left out. No stated cut-off is given here; in the data, active means T/C of 150% or more; inactive means T/C below 125%.
Tested on: L1210 leukemia ip in BDF1 mice, survival T/C
Assay: NCI In Vivo Anticancer Drug Screen. Data for tumor model L1210 Leukemia (intraperitoneal) in B6D2F1 (BDF1) mice
Details: endpoint: mean survival time, higher = longer survival
Outline: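 Each compound was tested against a transplantable tumor grown in mice. The endpoint was survival, with treated animals benchmarked against vehicle controls as a simple ratio.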

[1] = dose: 100.0 mg/kg/injection, schedule: Q01DX001 (ip), vehicle: saline
[2] = dose: 200.0 mg/kg/injection, schedule: Q01DX001 (ip), vehicle: saline
[3] = dose: 400.0 mg/kg/injection, schedule: Q01DX001 (ip), vehicle: saline
[4] = dose: 100.0 mg/kg/injection, schedule: Q04DX003 (ip), vehicle: saline
[5] = dose: 200.0 mg/kg/injection, schedule: Q04DX003 (ip), vehicle: saline
[6] = dose: 100.0 mg/kg/injection, schedule: Q04DX003 (ip), vehicle: saline with Tween-80
[7] = dose: 200.0 mg/kg/injection, schedule: Q04DX003 (ip), vehicle: saline with Tween-80
[8] = dose: 100.0 mg/kg/injection, schedule: Q01DX009 (ip), vehicle: saline with Tween-80
[9] = dose: 200.0 mg/kg/injection, schedule: Q01DX009 (ip), vehicle: saline with Tween-80
[10] = dose: 100.0 mg/kg/injection, schedule: Q04DX003 (ip), vehicle: Klucel (hydroxypropylcellulose) (HPC)
[11] = dose: 200.0 mg/kg/injection, schedule: Q04DX003 (ip), vehicle: Klucel (hydroxypropylcellulose) (HPC)
[12] = dose: 400.0 mg/kg/injection, schedule: Q04DX003 (ip), vehicle: Klucel (hydroxypropylcellulose) (HPC)
[13] = dose: 100.0 mg/kg/injection, schedule: Q01DX009 (ip), vehicle: Klucel (hydroxypropylcellulose) (HPC)
[14] = dose: 200.0 mg/kg/injection, schedule: Q01DX009 (ip), vehicle: Klucel (hydroxypropylcellulose) (HPC)
[15] = dose: 50.0 mg/kg/injection, schedule: Q01DX009 (ip), vehicle: saline with Tween-80
[16] = dose: 50.0 mg/kg/injection, schedule: Q01DX009 (ip), vehicle: Klucel (hydroxypropylcellulose) (HPC)
[17] = dose: 100.0 mg/kg/injection, schedule: Q04DX002 (ip), vehicle: Klucel (hydroxypropylcellulose) (HPC)
[18] = dose: 200.0 mg/kg/injection, schedule: Q04DX002 (ip), vehicle: Klucel (hydroxypropylcellulose) (HPC)

Measured: T/C

COc1ccc(C(=O)c2cc3cccc(OC)c3o2)cc1OC
inactive: dose: 75.0 mg/kg/injection, schedule: Q01DX009 (ip), vehicle: saline 87 % of control | [1] 102 % of control | dose: 150.0 mg/kg/injection, schedule: Q01DX009 (ip), vehicle: saline 92 % of control | [2] 94 % of control | dose: 300.0 mg/kg/injection, schedule: Q01DX009 (ip), vehicle: saline 93 % of control | [3] 93 % of control

COCCCn1nnc2ccccc2c1=O
inactive: [4] 98 % of control | [5] 93 % of control | dose: 400.0 mg/kg/injection, schedule: Q04DX003 (ip), vehicle: saline 100 % of control

CC1=CC(=N\S(=O)(=O)c2ccccc2)/C2(Cl)CC(C)=C(C)CC2/C1=N/S(=O)(=O)c1ccccc1 (centres undefined)
inactive: dose: 50.0 mg/kg/injection, schedule: Q01DX001 (ip), vehicle: Klucel (hydroxypropylcellulose) (HPC) 98 % of control | dose: 100.0 mg/kg/injection, schedule: Q01DX001 (ip), vehicle: Klucel (hydroxypropylcellulose) (HPC) 95 % of control | dose: 200.0 mg/kg/injection, schedule: Q01DX001 (ip), vehicle: Klucel (hydroxypropylcellulose) (HPC) 103 % of control

O=C(O)c1ccc[n+]([O-])c1
inactive: [6] 100 % of control | [7] 100 % of control

c1coc(NC2CCCCC2)n1
inactive: [8] 100 % of control | [9] 92 % of control | dose: 400.0 mg/kg/injection, schedule: Q01DX009 (ip), vehicle: saline with Tween-80 86 % of control

CCOC(=O)c1cnc[nH]c1=O
inactive: [10] 100 % of control | [11] 100 % of control | [12] 87 % of control

O=C(Nc1ccc(Cl)c(Cl)c1)OCCN1CCOCC1
inactive: [13] 92 % of control | [14] 94 % of control | dose: 400.0 mg/kg/injection, schedule: Q01DX009 (ip), vehicle: Klucel (hydroxypropylcellulose) (HPC) 92 % of control

O=C(O)c1ccsc1Cc1ccsc1
inactive: [15] 89 % of control | [8] 96 % of control | [9] 86 % of control

Oc1ccc2nocc2c1N=Nc1ccccc1
inactive: [15] 98 % of control | [8] 98 % of control | [9] 95 % of control

O=Nc1ccc(C=C2C(=O)C=CC2=O)cc1
inactive: dose: 75.0 mg/kg/injection, schedule: Q01DX001 (ip), vehicle: saline 100 % of control | dose: 150.0 mg/kg/injection, schedule: Q01DX001 (ip), vehicle: saline 94 % of control | dose: 300.0 mg/kg/injection, schedule: Q01DX001 (ip), vehicle: saline 101 % of control

[O-][n+]1ccc2ccccc2c1
inactive: dose: 50.0 mg/kg/injection, schedule: Q01DX005 (ip), vehicle: Klucel (hydroxypropylcellulose) (HPC) 102 % of control | [16] 101 % of control | dose: 100.0 mg/kg/injection, schedule: Q01DX001 (ip), vehicle: other 110 % of control | dose: 100.0 mg/kg/injection, schedule: Q01DX005 (ip), vehicle: Klucel (hydroxypropylcellulose) (HPC) 97 % of control | [13] 108 % of control | [17] 106 % of control | [4] 111 % of control | dose: 200.0 mg/kg/injection, schedule: Q01DX001 (ip), vehicle: other 100 % of control | dose: 200.0 mg/kg/injection, schedule: Q01DX005 (ip), vehicle: Klucel (hydroxypropylcellulose) (HPC) 105 % of control | [14] 111 % of control | [18] 109 % of control | [5] 114 % of control | dose: 400.0 mg/kg/injection, schedule: Q01DX001 (ip), vehicle: other 103 % of control

CC12C(=O)OC3CCC1CC32 (centres undefined)
inactive: dose: 75.0 mg/kg/injection, schedule: Q04DX003 (ip), vehicle: saline 97 % of control | dose: 150.0 mg/kg/injection, schedule: Q04DX003 (ip), vehicle: saline 94 % of control | dose: 300.0 mg/kg/injection, schedule: Q04DX003 (ip), vehicle: saline 94 % of control

CCOC(=O)CC(c1ccccc1)C(C(=O)OCC)C(=O)OCC (centres undefined)
inactive: [1] 106 % of control | [2] 103 % of control | [3] 103 % of control

O=[N+]([O-])C1CCCCC1O (centres undefined)
inactive: dose: 10.0 mg/kg/injection, schedule: Q01DX001 (ip), vehicle: saline 103 % of control | dose: 20.0 mg/kg/injection, schedule: Q01DX001 (ip), vehicle: saline 105 % of control | dose: 40.0 mg/kg/injection, schedule: Q01DX001 (ip), vehicle: saline 100 % of control

C[C@@]1(C(=O)O)CC2C=CC1C2 (some centres undefined)
inactive: [17] 96 % of control | [18] 96 % of control | dose: 400.0 mg/kg/injection, schedule: Q04DX002 (ip), vehicle: Klucel (hydroxypropylcellulose) (HPC) 93 % of control

O=C1C=C2C=CCCC2CC1 (centres undefined)
inactive: dose: 75.0 mg/kg/injection, schedule: Q01DX001 (ip), vehicle: other 104 % of control | dose: 150.0 mg/kg/injection, schedule: Q01DX001 (ip), vehicle: other 98 % of control | dose: 300.0 mg/kg/injection, schedule: Q01DX001 (ip), vehicle: other 114 % of control

OC(c1ccccc1)C1C(c2ccccc2)N1C1CCCCC1 (centres undefined)
inactive: dose: 25.0 mg/kg/injection, schedule: Q01DX009 (ip), vehicle: Klucel (hydroxypropylcellulose) (HPC) 97 % of control | [16] 96 % of control | [10] 101 % of control | [11] 98 % of control

N=C(CC(=O)Nc1ccccc1)c1ccccc1
inactive: dose: 50.0 mg/kg/injection, schedule: Q01DX001 (ip), vehicle: saline 101 % of control | [1] 96 % of control | [2] 102 % of control | [3] 101 % of control

CCCC#CC(=O)OCC
inactive: dose: 100.0 mg/kg/injection, schedule: Q04DX002 (ip), vehicle: saline 91 % of control | dose: 200.0 mg/kg/injection, schedule: Q04DX002 (ip), vehicle: saline 97 % of control | dose: 400.0 mg/kg/injection, schedule: Q04DX002 (ip), vehicle: saline 89 % of control

O=C(O)CN1C(=O)CNC12CCCC2
inactive: [1] 100 % of control | [2] 108 % of control | [3] 93 % of control

CC1(C(N)=O)CC2C=CC1C2 (centres undefined)
inactive: dose: 200.0 mg/kg/injection, schedule: Q01DX001 (ip), vehicle: carboxymethylcellulose (CMC) 98 % of control | dose: 400.0 mg/kg/injection, schedule: Q01DX001 (ip), vehicle: carboxymethylcellulose (CMC) 95 % of control

NNC(=O)Cc1ccc(Cl)c2ccccc12
inactive: [10] 104 % of control | [11] 91 % of control

COc1ccc(-c2nc(SCc3ccccc3)[nH]c(=O)c2CCO)cc1
inactive: [10] 95 % of control | [11] 88 % of control | [12] 93 % of control

CCOCC1COC(c2ccc3c(c2)OCO3)O1 (centres undefined)
inactive: dose: 222.0 mg/kg/injection, schedule: Q01DX Z (ip), vehicle: methylcellulose (MC) 102 % of control | dose: 333.0 mg/kg/injection, schedule: Q01DX Z (ip), vehicle: methylcellulose (MC) 104 % of control | dose: 500.0 mg/kg/injection, schedule: Q01DX Z (ip), vehicle: methylcellulose (MC) 102 % of control

N#Cc1cn(C2OC(CO)C(O)C2O)c2ncnc(N)c12 (centres undefined)
inactive: dose: 0.04 mg/kg/injection, schedule: Q01DX009 (ip), vehicle: saline 119 % of control | dose: 0.08 mg/kg/injection, schedule: Q01DX005 (ip), vehicle: saline 86 % of control | dose: 0.09 mg/kg/injection, schedule: Q01DX009 (ip), vehicle: saline 107 % of control | dose: 0.12 mg/kg/injection, schedule: Q01DX005 (ip), vehicle: saline 96 % of control

CC(=O)OC1CC2CC1C1C3C=CC(C3)C21 (centres undefined)
inactive: [1] 98 % of control | [2] 95 % of control | [3] 106 % of control

ON=C1CCC(CC2CCCCC2)CC1 (centres undefined)
inactive: [6] 95 % of control | [7] 100 % of control | dose: 400.0 mg/kg/injection, schedule: Q04DX003 (ip), vehicle: saline with Tween-80 101 % of control

Cc1ncc2c[n+]([O-])ccn12
inactive: [4] 97 % of control | [5] 98 % of control

CCCCCCCCCCCCNc1ccc(S(=O)(=O)c2ccc(N)cc2)cc1
inactive: dose: 100.0 mg/kg/injection, schedule: Q04DX002 (ip), vehicle: saline with Tween-80 100 % of control | dose: 200.0 mg/kg/injection, schedule: Q04DX002 (ip), vehicle: saline with Tween-80 97 % of control | dose: 400.0 mg/kg/injection, schedule: Q04DX002 (ip), vehicle: saline with Tween-80 103 % of control

Source: PubChem BioAssay AID248 (DTP/NCI, 2004)
